Assay results as given in patent US4647586A, “Pharmaceutical oil-in-water type micro-emulsion” (priority 1984, dated 1987).

What was measured:
[1] = system: Carrageenin-induced paw edema; assay: Carrageenin-induced paw edema in rats [Test 2]; type: in vivo, SD-strain male rats
Procedure: (a) Experimental animals: SD-strain male rats (120-180 g).
A micro-emulsion containing ethyl 4-biphenylylacetate prepared as in Examples 11, 12, 13 and 14 given hereinafter was administered at a dose of 5 ml per kg of the animals. Venolipid® (Morishita Pharmaceutical Co., Ltd.) was used as a vehicle control. As control drugs, a solution or suspension of ethyl 4-biphenylylacetate in physiological saline containing 0.5% Cremophor EL® (Sigma Chemical Company, a solubilizing agent), 0.2% of polyethylene glycol 400 and 10% of dimethyl sulfoxide, a physiological saline solution of sodium 4-biphenylylacetate and a physiological saline solution of Aspirin DL-lysine [Venopirin®, Green Cross Co.] were used. As the vehicle control of the control drugs, the above solvents were used.
A 1% carrageenin solution in physiological saline was injected subcutaneously in an amount of 0.05 ml into the planter surface of the left hind paw of each rat via a 25 gauge needle fitted to a 0.25 ml syringe. One hour after carrageenin injection, the rats were randomized on the basis of the edema volume, and intravenous administration of the drugs and vehicles followed immediately. The volume of the left hind paw was measured by a plethysmometer (Ugo Basile) prior to the injection of the carrageenin solution and at 2, 3, 4, 5 and 6 hours after the carrageenin injection. As the volume of edema, an increase in the paw volume was taken.
The inhibition percents were calculated in accordance with the same calculation formula as in Test 1.

[2] = system: Adjuvant-induced polyarthritis; assay: Adjuvant-induced polyarthritis in rats, adjuvant-injected paw [Test 2]; type: in vivo, SD-strain female rats
Procedure: (a) Experimental animals: SD-strain famale rats 140-180g).
(§1) (b) Test drugs: The same as in A-1 [Test 2].
Rats were anesthetized with ether inhalation, and 0.6 mg of Mycobacterium butyricum suspended in 0.1 ml of white paraffin oil was immediately injected intradermally into the planter surface of the left hind paw of each rat via a 27 gauge needle fitted to a 0.5 ml syringe (day 0). On the 14th day after the adjuvant injection, arthritis-established rats selected by development of secondary lesions were used. Volumes of both hind paws in arthritis-established rats were measured by a plethysmometer (UGO BASILE), and the rats were randomized on the basis of the edema volume in the adjuvant-injected paw. Once daily, beginning on the 14th day up to the 18th day, drugs and vehicles were administered intravenously. Measurements of both paw volumes were performed every day from the 15th day up to the 18th day, and on the 21st day and the 24th day. The inhibition percent were calculated in accordance with the calculation formula as in [Test 1] of A-1.

[3] = system: abnormal 3-legged gait (brewers yeast-inflamed paw); assay: Reversal of abnormal 3-legged gait in rats (analgesic activity); type: in vivo, SD-strain male rats; settings: Rattus norvegicus, iv, read-out: ED50 (dose causing at least 50% reversal of gait score in 50% of the rats)
Procedure: (a) Experimental animals: SD-strain male rats (120-165 g).
as §1
A 40% suspension of dried brewers yeast in physiological saline was injected (0.25 ml/rat) subcutaneously into the planter surface of the left hind paw of each rat. Three hours later, the walking gait on a wire mesh platform was assessed for each rat.
0 = Normal gait in the presence of a severely
0.5 = As above, with intermittent mild limping.
1.0 = Constant limping, but continuous use of
1.5 = Limping with occasional 3-legged gait
2.0 = Continous 3-Legged gait and/or only the
Any rat not showing a gait score of 2 was eliminated from this test. Drugs and vehicles were then administered intravenously. Measurements of the gait were made at 1, 2, 3 and 4 hours after drug administration.

[4] = system: brewer's yeast-induced fever; assay: Effects on body temperature in pyretic rats (antipyretic activity); type: in vivo, SD-strain male rats; settings: iv, 17 h, read-out: ED50 (dose reducing body temperature by at least 1.5° C. in 50% of the rats)
Procedure: (a) Experimental animals SD-strain male rats (120-185 g).
as §1
Male Sprague-Dawley rats, weighing 120-185 g, were injected subcutaneously in the nape of the neck with 2 ml of a 20% suspension of dried brewers yeast in physiological saline. Drugs and vehicles were administered intravenously 17 hours after treatment of yeast suspension. Rectal temperature was recorded with a thermistor type thermometer (Natsume Seisakusho, BMA-77 Type) just prior to drug administration and at 1/2, 1, 2 and 4 hours after drug administration.

[5] = system: synthesis of prostaglandin; settings: E. L. Tolman, American Cyanamid Company's report; cited from earlier work

In the case of CC(=O)Oc1ccccc1C(=O)O (racemic) [Aspirin-DL.Lysine], the “Inhibition (%)” value ([1]; 50 mg/kg i.v. as aspirin, 2 h after carrageenin) is reported as 24.2%, the “Inhibition (%)” value ([1]; 50 mg/kg i.v. as aspirin, 3 h after carrageenin) is reported as 26.7% and the “Inhibition (%)” value ([1]; 50 mg/kg i.v. as aspirin, 4 h after carrageenin) is reported as 35.7%. For the same molecule, the “Inhibition (%)” value ([1]; 50 mg/kg i.v. as aspirin, 5 h after carrageenin) was 29.6%, the “Inhibition (%)” value ([1]; 50 mg/kg i.v. as aspirin, 6 h after carrageenin) was 30.0% and the “Inhibition (%)” value ([1]; 100 mg/kg i.v. as aspirin, 2 h after carrageenin) was 24.2%. For the same molecule, the “Inhibition (%)” value ([1]; 100 mg/kg i.v. as aspirin, 3 h after carrageenin) was 26.7%, the “Inhibition (%)” value ([1]; 100 mg/kg i.v. as aspirin, 4 h after carrageenin) was 26.8% and the “Inhibition (%)” value ([1]; 100 mg/kg i.v. as aspirin, 5 h after carrageenin) was 22.2%. The “Inhibition (%)” value ([1]; 100 mg/kg i.v. as aspirin, 6 h after carrageenin) was 20.0%, the “Inhibition (%)” value ([1]; 200 mg/kg i.v. as aspirin, 2 h after carrageenin) was 37.9% and the “Inhibition (%)” value ([1]; 200 mg/kg i.v. as aspirin, 3 h after carrageenin) was 43.3%. For the same molecule, the “Inhibition (%)” value ([1]; 200 mg/kg i.v. as aspirin, 4 h after carrageenin) was 50.0%, the “Inhibition (%)” value ([1]; 200 mg/kg i.v. as aspirin, 5 h after carrageenin) was 42.6% and the “Inhibition (%)” value ([1]; 200 mg/kg i.v. as aspirin, 6 h after carrageenin) was 44.0%. For the same molecule, the ED30 ([1]; Rattus norvegicus, iv, read-out: ED30 (dose required to cause a 30% inhibition of edema volume)) was 81.6 mg/kg, the “Inhibition (%)” value ([2]; 50 mg/kg/day i.v. as aspirin, day 15) was -2.7% and the “Inhibition (%)” value ([2]; 50 mg/kg/day i.v. as aspirin, day 16) was -5.2%. The “Inhibition (%)” value ([2]; 50 mg/kg/day i.v. as aspirin, day 17) was -3.8%, the “Inhibition (%)” value ([2]; 50 mg/kg/day i.v. as aspirin, day 18) was -2.6% and the “Inhibition (%)” value ([2]; 50 mg/kg/day i.v. as aspirin, day 21) was -12.4%. The “Inhibition (%)” value ([2]; 50 mg/kg/day i.v. as aspirin, day 24) was -20.0%, the “Inhibition (%)” value ([2]; 100 mg/kg/day i.v. as aspirin, day 15) was 4.0% and the “Inhibition (%)” value ([2]; 100 mg/kg/day i.v. as aspirin, day 16) was 9.2%. The “Inhibition (%)” value ([2]; 100 mg/kg/day i.v. as aspirin, day 17) was 13.2%, the “Inhibition (%)” value ([2]; 100 mg/kg/day i.v. as aspirin, day 18) was 6.8% and the “Inhibition (%)” value ([2]; 100 mg/kg/day i.v. as aspirin, day 21) was 4.2%. The “Inhibition (%)” value ([2]; 100 mg/kg/day i.v. as aspirin, day 24) was -2.8%, the “Inhibition (%)” value ([2]; 200 mg/kg/day i.v. as aspirin, day 15) was 6.7% and the “Inhibition (%)” value ([2]; 200 mg/kg/day i.v. as aspirin, day 16) was 11.3%. For the same molecule, the “Inhibition (%)” value ([2]; 200 mg/kg/day i.v. as aspirin, day 17) was 16.4%, the “Inhibition (%)” value ([2]; 200 mg/kg/day i.v. as aspirin, day 18) was 15.3% and the “Inhibition (%)” value ([2]; 200 mg/kg/day i.v. as aspirin, day 21) was 7.2%. For the same molecule, the “Inhibition (%)” value ([2]; 200 mg/kg/day i.v. as aspirin, day 24) was 6.2%, the ED20 ([2]; Rattus norvegicus, iv, read-out: ED20 (dose required to cause a 20% inhibition of adjuvant-injected paw volume)) was 320 mg/kg and the ED50 [3] was 93.2 mg/kg. The ED50 [4] was 76.3 mg/kg.
In the case of O=C(O)Cc1ccc(-c2ccccc2)cc1 [4-biphenylylacetic acid, 4-Biphenylylacetic acid], the “IC50, inhibition of synthesis of prostaglandin” value [5] is given as 0.68 ng/mL.
